Here are results for 19 compounds from ChEMBL document CHEMBL1149235, “Tetrahydronaphthalene-derived amino alcohols and amino ketones as potent and selective inhibitors of the delayed rectifier potassium current IKs” (Bioorg Med Chem Lett, 2004).

By IC50 is commonly meant the concentration that gives 50% inhibition. A low value points to greater potency.

Some results are limits rather than exact numbers.

The nature of test [1]: Inhibitory activity against slow component of delayed rectifier potassium current IKs in guinea pig ventricular myocytes. The class given is cell-based, Cavia porcellus, Ventricular myocyte.
Test [2] in a line: Inhibition of rapid component of delayed rectifier potassium current IKr in guinea pig ventricular myocytes. The class given is cell-based, Cavia porcellus, Ventricular myocyte.
Where [3] appears, read: Cavia porcellus, Ventricular myocyte.

`O=C1c2ccc(Oc3ccccc3)cc2CCC1CCN1CCC(c2ccccc2)CC1` (stereo unspecified) registered an IC50 in test [1] (setting [3]) of 1500 nM.
Regarding `O=C1c2ccc(-c3ccccc3)cc2CCC1CCN1CCC(c2ccccc2)CC1` (stereo unspecified), in test [1] (setting [3]), inhibition was half-maximal at 2400 nM (IC50). Against the preceding compound, the IC50 is about 1.6-fold higher.
With `COc1ccc2c(c1)CCC(CN1CCC(c3ccccc3)CC1)C2=O` (stereo unspecified), the results for the half-inhibitory concentration (IC50) in test [2] (setting [3]) and in test [1] (setting [3]) were 4000 nM and 5000 nM, respectively.
In test [1] (setting [3]), `O=C1c2ccc(OCc3cccc(-c4ccccc4)c3)cc2CCC1CCN1CCC(c2ccccc2)CC1` (stereo unspecified) yielded a half-maximal inhibitory concentration (IC50) of 470 nM.
In test [1] (setting [3]), `O=C1c2ccc(OCc3ccccn3)cc2CCC1CCN1CCC(c2ccccc2)CC1` (stereo unspecified) returned a half-maximal inhibitory concentration (IC50) of 1300 nM.
The compound `O[C@H]1c2ccc(OCc3ccccc3-c3ccccc3)cc2CC[C@H]1CCN1CCC(c2ccccc2)CC1` came in with an IC50 in test [1] (setting [3]) of 390 nM.
Same read-out and setting: in the case of `O=C1c2ccc(OCc3cccnc3)cc2CCC1CCN1CCC(c2ccccc2)CC1` (stereo unspecified) it was 380 nM.
The compound `O=C1c2ccc(OCc3ccc(-c4ccccc4)cc3)cc2CCC1CCN1CCC(c2ccccc2)CC1` (stereo unspecified) gave a half-maximal inhibitory concentration (IC50) in test [1] (setting [3]) of 1000 nM.
`O=C1c2ccc(OCc3ccncc3)cc2CCC1CCN1CCC(c2ccccc2)CC1` (stereo unspecified): in test [1] (setting [3]), the IC50 worked out at 200 nM.
In the case of `O=C1c2ccc(OCc3ccccc3)cc2CCC1CC(=O)N1CCC(c2ccccc2)CC1` (stereo unspecified), the IC50 in test [1] (setting [3]) was over 30000 nM.
Take `O=C1c2ccc(OCc3ccccc3-c3ccccc3)cc2CCC1CCN1CCC(c2ccccc2)CC1` (single isomer, unassigned): the IC50 in test [2] (ventricular myocyte) is 1600 nM; in test [1] (ventricular myocyte), 340 nM.
On the same counts, the results for `OC1c2ccc(OCc3ccccc3)cc2CCC1CCN1CCC(c2ccccc2)CC1` (single isomer, unassigned) are 110 nM and 1300 nM.
In test [1] (ventricular myocyte), `COc1ccc2c(c1)CCC(CCN1CCC(c3ccccc3)CC1)C2=O` (single isomer, unassigned) returned an IC50 of 1700 nM.
Still for that read-out and setting: in the case of `O[C@@H]1c2ccc(OCc3ccccc3-c3ccccc3)cc2CC[C@H]1CCN1CCC(c2ccccc2)CC1` (stereo in doubt) it was 1000 nM.
Regarding `OC1c2ccc(OCc3ccccc3)cc2CCC1CCN1CCC(c2ccccc2)CC1` (stereo in doubt; 7b), the IC50 in test [2] (setting [3]) is 170 nM; in test [1] (ventricular myocyte) it was 150 nM.
On the same counts, the results for `COc1ccc2c(c1)CCC(CCN1CCC(c3ccccc3)CC1)C2=O` (stereo in doubt; 8a) are 1700 nM and 400 nM.
In the case of `O=C1c2ccc(OCc3ccccc3)cc2CCC1CCN1CCC(c2ccccc2)CC1` (stereo in doubt; 8b), the results for the 50% inhibitory concentration (IC50) in test [2] (ventricular myocyte) and in test [1] (ventricular myocyte) were 160 nM and 69 nM, respectively.
On the same counts, the results for `O=C1c2ccc(OCc3ccccc3-c3ccccc3)cc2CCC1CCN1CCC(c2ccccc2)CC1` (stereo in doubt; 10d) are 260 nM and 30 nM.
For the compound `O[C@@H]1c2ccc(OCc3ccccc3-c3ccccc3)cc2CC[C@H]1CCN1CCC(c2ccccc2)CC1` (stereo in doubt; 14a), the IC50 in test [1] (ventricular myocyte) worked out at 37 nM.
